Entries after “also recorded” stand apart in the source; their conditions may differ. Counter-ions that a name gives are not always drawn.
How the values were obtained:
[1] = Acute toxicity in mice (LD 50); assay type: in vivo; conditions: mouse, in vivo, mice, 15 days observation
Experimental: (§1) The study is carried out on batches of 5 Swiss female mice of the NMRI Han. strain. The products are administered either intravenously (into the caudal vein) in solution in a 9 g..permill. sodium chloride solution, or orally (probang) in suspension in a 10% solution of gum arabic.
(§2) The animals are observed for the 15 days following the administration of the products.
(§3) The LD 50 values are calculated by the method of Karber and Behrens (Arch. Exp. Pathol. Pharm. 177, 1935, page 379).

mice = assay: Acute toxicity in mice (LD 50); assay type: in vivo; conditions: intravenous; in words
Experimental: as §1, §2, §3

[2] = Cardiovascular action in dogs; assay type: in vivo, male Beagle dogs
Experimental: Male Beagle dogs weighing 9 to 12 kg. were anaesthetised by intrasaphenous injection of a 2% solution of chloralose in physiological solution, at a dose of 100 mg./kg.
The anaesthesia is maintained by slow perfusion of 5% pentobarbital (1.2 ml./hour).
The animals are tracheotomised and placed under assisted respiration by means of a Bird respirator. Their oxygenation and their acid-base equilibrium are controlled by determination of the pH, the pCO2 and the pO2 on blood samples taken from a collateral of the brachial artery (pH/gas analyser for blood, IL model 213/227).
The different parameters are recorded on a polygraph.

[3] = test system: isolated auricle of a rabbit; assay: Peripheral vasomotoricity, isolated and perfused auricle of a rabbit; conditions: for activation at 0.0001 mg / activation at 0.001 mg / activation at 0.01 mg / activation at 0.1 mg: Oryctolagus cuniculus, read-out: Maximum variations in the flow rate; for activation at 0.0001 mg: dose 0.1 μg.; for activation at 0.001 mg: dose 1 μg.; for activation at 0.01 mg: dose 10 μg.; for activation at 0.1 mg: dose 100 μg.; for duration of the effects / of the action: at the highest doses; for peripheral vasodilatory action: in words
Experimental: The flow rate of the liquid issuing from the veins is recorded by electronic contact on a polygraph. The products to be studied are injected at increasing doses into the perfusion tube and their actions are compared to that of isoxsuprine used as the reference substance.
The results, collected in Table No. III, are expressed in the maximum percentage increase of the flow rate at the various doses used.

[4] = test system: hypertensive effects of electrical stimulation, adrenaline and noradrenaline; assay: α-Sympatholytic effects in amyeliated rats; assay type: in vivo; conditions: for % variation of the hypertensive effects obtained with adrenaline: adrenaline 1.25 to 2.5 μg./kg.; for % variation of the hypertensive effects obtained with noradrenaline: noradrenaline 1.25 to 2.5 μg./kg.
Source text: The α-sympatholytic effects of LJ 1052 and LJ 1053 are compared with those of isoxsuprine in amyeliated rats which have been prepared by a method derived from those of Shipley and Tilden (Proc. soc. Exp. Biol. Med. 1947, 64, 453-455) and of Gillespie and Muir (Br. J. Pharmac. Chemother. 1967, 30, 78-87).
The effects on the blood pressure of electrical stimulation of the thoracolumbar sympathic nerve (rectangular signals = voltage 20 to 40 volts; width 2 m. sec; frequency 10 secs.; duration 5 to 10 secs.) and of injections of adrenaline (1.25 to 2.5 μg./kg.) and of noradrenaline (1.25 to 2.5 μg./kg.) are determined before and after injection of the products tested.

[5] = test system: isolated duodenum of a rat; assay: Musculotropic spasmolytic action on the isolated duodenum of a rat (barium chloride contraction); conditions: in words
Experimental: The experiments are carried out in accordance with the method of Magnus R. (Arch. ges. Physiol. 1904, 102, 123) on the isolated duodenum of a rat, surviving in oxygenated Tyrode liquid and kept at 38° C. The tonus and the pendular movements of the duodenum were recorded by means of a strain gauge on an electronic polygraph.
The inherent action of the products, and the antagonism exerted against the musculotropic contraction-inducing action of barium chloride was examined. Papaverine is used as the reference substance.

[6] = 0.04 mg./kg. i.v. (1/1,000 LD 50)
[7] = 0.04 mg./kg. i.v. (1/1,000 LD 50), first or only phase
[8] = 0.04 mg./kg. i.v. (1/1,000 LD 50), then
[9] = dose 50 g./kg. (so in the source)
[10] = dose 100 g./kg. (so in the source)
[11] = 0.6 mg./kg. i.v. (1/50 LD 50), first phase
[12] = 0.6 mg./kg. i.v. (1/50 LD 50), then

SMILES: COCCCCNCC1COc2ccccc2C1=O (centres unmarked) [LJ 1053, 3-(4-Methoxy-n-butylaminomethyl)-4-chromanone hydrochloride]
- LD50 at 360 h ([1]; intravenous administration): 38 mg/kg
- LD50 at 360 h ([1]; oral administration): 285 mg/kg
- intravenous LD 50 in mice (comparison of three products) (mice): practically identical
- Diastolic AP, duration of action [2, 6]: 5 min
- Diastolic AP, maximum per cent variation [2, 6]: -60%
- FF (mean flow rate of the femoral artery), maximum per cent variation [2, 6]: +104%
- FF, duration of action [2, 6]: 3 min
- Hb (heart beat), maximum per cent variation [2, 6]: +23%
- Hb, duration of action [2, 6]: > 30 min
- LVP, duration of action [2, 6]: > 10 min
- Mean AP, duration of action [2, 6]: 5 min
- Mean AP, maximum per cent variation [2, 6]: -45%
- Systolic AP, duration of action [2, 6]: 15 min
- Systolic AP, maximum per cent variation [2, 6]: +23%
- LVP (left ventricular pressure), maximum per cent variation [2, 7]: -17%
- dLVP/dt, maximum per cent variation [2, 7]: -12%
- dLVP/dt, duration of action, second phase ("then") [2, 8]: > 10 min
- dLVP/dt, maximum per cent variation, second phase ("then") [2, 8]: +25%
- activation at 0.0001 mg [3]: 23%
- activation at 0.001 mg [3]: 92%
- activation at 0.01 mg [3]: 133%
- activation at 0.1 mg [3]: 183%
- duration of the effects / of the action [3]: ≥ 30 min
- peripheral vasodilatory action ([3]; hydrochloride): great; also recorded: as active as isoxsuprine
- % variation of the hypertensive effects obtained with electrical stimulation [4, 9]: -11%
- % variation of the hypertensive effects obtained with adrenaline [4, 9]: -18%
- % variation of the hypertensive effects obtained with noradrenaline [4, 9]: -12%
- % variation of the hypertensive effects obtained with electrical stimulation [4, 10]: -55%
- % variation of the hypertensive effects obtained with adrenaline [4, 10]: -47%
- % variation of the hypertensive effects obtained with noradrenaline [4, 10]: -41%

SMILES: CCCCCNCC1COc2ccccc2C1=O (centres unmarked) [LJ 1046, 3-(n-Pentylaminomethyl)-4-chromanone hydrochloride]
- LD50 at 360 h ([1]; intravenous administration): 18 mg/kg
- LD50 at 360 h ([1]; oral administration): 237 mg/kg
- musculotropic spasmolytic action compared with papaverine / within the series [5]: the most active
- FF (mean flow rate of the femoral artery), maximum per cent variation ([2]; 0.36 mg./kg. i.v. (1/50 LD 50)): +100%
- FF, duration of action ([2]; 0.36 mg./kg. i.v. (1/50 LD 50)): > 20 min
- Hb (heart beat), maximum per cent variation ([2]; 0.36 mg./kg. i.v. (1/50 LD 50)): +30%
- Hb, duration of action ([2]; 0.36 mg./kg. i.v. (1/50 LD 50)): > 20 min
- LVP (left ventricular pressure), maximum per cent variation ([2]; 0.36 mg./kg. i.v. (1/50 LD 50)): -20%
- LVP, duration of action ([2]; 0.36 mg./kg. i.v. (1/50 LD 50)): > 20 min
- Mean AP, duration of action ([2]; 0.36 mg./kg. i.v. (1/50 LD 50)): > 20 min
- Mean AP, maximum per cent variation ([2]; 0.36 mg./kg. i.v. (1/50 LD 50)): -36%
- dLVP/dt, duration of action ([2]; 0.36 mg./kg. i.v. (1/50 LD 50)): > 20 min
- dLVP/dt, maximum per cent variation ([2]; 0.36 mg./kg. i.v. (1/50 LD 50)): +43%
- activation at 0.0001 mg [3]: 38%
- activation at 0.001 mg [3]: 29%
- activation at 0.01 mg [3]: 61%
- activation at 0.1 mg [3]: 77%
- maximum increases in the flow rate ([3]; all doses (0.1 to 100 μg.)): ≤ 100%

SMILES: COCCCNCC1COc2ccccc2C1=O (centres unmarked) [LJ 1051, 3-(3-Methoxy-n-propylaminomethyl)-4-chromanone hydrochloride]
- LD50 at 360 h ([1]; intravenous administration): 33 mg/kg
- LD50 at 360 h ([1]; oral administration): 475 mg/kg
- LVP (left ventricular pressure), maximum per cent variation ([2]; 0.6 mg./kg. i.v. (1/50 LD 50)): -30%
- LVP, duration of action ([2]; 0.6 mg./kg. i.v. (1/50 LD 50)): > 50 min
- Mean AP, duration of action ([2]; 0.6 mg./kg. i.v. (1/50 LD 50)): > 50 min
- Mean AP, maximum per cent variation ([2]; 0.6 mg./kg. i.v. (1/50 LD 50)): -21%
- dLVP/dt, duration of action ([2]; 0.6 mg./kg. i.v. (1/50 LD 50)): > 50 min
- dLVP/dt, maximum per cent variation ([2]; 0.6 mg./kg. i.v. (1/50 LD 50)): -60%
- Hb (heart beat), maximum per cent variation [2, 11]: +20%
- Hb, duration of action [2, 11]: 3 min
- Hb, duration of action, second phase ("then") [2, 12]: 40 min
- Hb, maximum per cent variation, second phase ("then") [2, 12]: -16%
- activation at 0.0001 mg [3]: 0%
- activation at 0.001 mg [3]: 36%
- activation at 0.01 mg [3]: 100%
- duration of the effects / of the action [3]: ≥ 30 min
- peripheral vasodilatory action [3]: great

From US4065575A, “3-Aminomethyl derivatives of 4-chromanone” (Joullie International, priority 1975, dated 1977)
